Experimental data reported in patent publication US4845121A, “Aci-reductone compounds belonging to the 6,7-disubstituted-3,4-dihydro benzopyan-2H-one class having antiaggregatory properties” (The Ohio State University Research Foundation, priority 1986, dated 1989).
Entries after “also recorded” stand apart in the source; their conditions may differ.

Experiments:
[1] = tested on: human platelets (ADP-induced aggregation); experiment: ADP-induced human platelet aggregation (turbidometric, secondary aggregation); type: cell-based; settings: for rank order of potency, aggregation and serotonin secretory responses to ADP and AA: aggregation and serotonin secretion together; for IC50: Homo sapiens, Platelet, inhibitor 1 min before ADP (1-5 uM), secondary aggregation only, mean ± S.E.M., n = 3-9 donors; for fold more potent than clofibric acid as inhibitor of ADP-induced platelet activation: versus clofibric acid 1
Experimental: (§1) The antiaggregatory action of the compounds of the present invention was determined using the following procedure: ADP and AA were obtained from Sigma Chemical Co., (St. Louis, MO). [^14 C]-Serotonin (57 mCi/mmol) and [^3 H]-AA (210 Ci/mmol) were supplied by Amersham (Arlington Heights, IL). U46619 (15S-hydroxy-11α,9α-epoxymethano-prosta-5z,13E-dienoic acid) was purchased from Upjohn Diagnostics (Kalamazoo, MI). Blood was collected from normal human volunteers who reported to be free of medication for at least 10 days prior to blood collection. Washed platelets were prepared and suspended in a modified Tyrode's solution, pH 7.4 as described in Navran, S. S., et al., Thromb. […] The platelet count was adjusted to 3×10^8 /ml for aggregation, secretion and biochemical studies.
(§2) Inhibitors were added one minute prior to induction of platelet activation. Secretion of the contests of platelet dense granules was measured by monitoring the release of radioactivity from platelets prelabeled with [^14 C]-serotonin. […] To study the release of AA from platelet phospholipids, washed platelets were incubated with [^3 H]-AA (3.6 mCi/10^9 platelets) for two hours at room temperature prior to the final centrifugation and resuspension of the washing procedure. Released [^3 H]-AA was quantified from supernatants of stimulated platelet samples in a manner identical to the determination of serotonin secretion.

[2] = tested on: human platelets (arachidonic acid-induced aggregation); experiment: Arachidonic acid-induced human platelet aggregation (turbidometric); type: cell-based; settings: for IC50: Homo sapiens, Platelet, inhibitor 1 min before AA (0.2-1 mM), mean ± S.E.M., n = 3-9 donors; for fold more potent inhibitor of AA-induced aggregation: implied versus clofibric acid; for antiaggregatory potency relative to clofibric acid (in words): prostaglandin-dependent pathway of platelet activation
Experimental: as §1, §2

[3] = tested on: human platelets (U46619, thromboxane A2 agonist-induced aggregation); experiment: U46619-induced human platelet aggregation (turbidometric, + ASA); type: cell-based; settings: for IC50: Homo sapiens, Platelet, inhibitor 1 min before U46619 (0.3 uM), aspirin 1 mM added, mean ± S.E.M., n = 3-9 donors
Experimental: as §1, §2

[4] = tested on: human platelets (ADP-induced serotonin secretion); experiment: ADP-induced [14C]-serotonin secretion; type: cell-based; settings: Platelet, inhibitor 1 min before ADP (1-5 uM), mean ± S.E.M., n = 3-9 donors
Experimental: as §1
Inhibitors were added one minute prior to induction of platelet activation. Secretion of the contests of platelet dense granules was measured by monitoring the release of radioactivity from platelets prelabeled with [^14 C]-serotonin. […] Released [^3 H]-AA was quantified from supernatants of stimulated platelet samples in a manner identical to the determination of serotonin secretion.

[5] = tested on: human platelets (arachidonic acid-induced serotonin secretion); experiment: Arachidonic acid-induced [14C]-serotonin secretion; type: cell-based; settings: for IC50: Homo sapiens, Platelet, inhibitor 1 min before AA (0.2-1 mM), mean ± S.E.M., n = 3-9 donors
Experimental: as §1, §2

[6] = tested on: human platelets (U46619-induced serotonin secretion); experiment: U46619-induced [14C]-serotonin secretion (+ ASA); type: cell-based; settings: for IC50: Homo sapiens, Platelet, inhibitor 1 min before U46619 (0.3 uM), aspirin 1 mM added, mean ± S.E.M., n = 3-9 donors; for fold more potent than clofibric acid as inhibitor of U46619-evoked serotonin secretion: versus clofibric acid 1
Experimental: as §1, §2

[7] = tested on: human platelets (thrombin-induced [3H]-AA release); experiment: Thrombin-induced [3H]-arachidonic acid release; type: cell-based; settings: for IC50: Homo sapiens, Platelet, inhibitor 1 min before thrombin (0.5 U/ml), terminated at 4 min, 3-5 donors; for inhibition of AA release (in words): thrombin-induced AA release / release from platelet membrane phospholipids
Experimental: (§3) The antiaggregatory action of the compounds of the present invention was determined using the following procedure: ADP and AA were obtained from Sigma Chemical Co., (St. Louis, MO). [^14 C]-Serotonin (57 mCi/mmol) and [^3 H]-AA (210 Ci/mmol) were supplied by Amersham (Arlington Heights, IL). U46619 (15S-hydroxy-11α,9α-epoxymethano-prosta-5z,13E-dienoic acid) was purchased from Upjohn Diagnostics (Kalamazoo, MI). Blood was collected from normal human volunteers who reported to be free of medication for at least 10 days prior to blood collection. Washed platelets were prepared and suspended in a modified Tyrode's solution, pH 7.4 as described in Navran, S. S., et al., Thromb. Res., 33: 449-510 (1984). The platelet count was adjusted to 3×10^8 /ml for aggregation, secretion and biochemical studies.
Platelet aggregation studies were performed according to the turbidometric method of Born, as described in Nature, 194: 927-929 (1962), in a Payton Model 600 dual channel aggregometer interfaced to an Apple microcomputer for acquistion, quantitation, presentation, and management of platelet aggregation data, as described in Huzoor-Akbar, et al., 32 Thromb. Res., 335-341 (1983). Inhibitors were added one minute prior to induction of platelet activation. Secretion of the contests of platelet dense granules was measured by monitoring the release of radioactivity from platelets prelabeled with [^14 C]-serotonin. Malondialdehyde formation induced by AA was determined as described in Huzoor-Akar et al., Biochem Pharmacol., 30: 2013-2020 (1981). To study the release of AA from platelet phospholipids, washed platelets were incubated with [^3 H]-AA (3.6 mCi/10^9 platelets) for two hours at room temperature prior to the final centrifugation and resuspension of the washing procedure. Released [^3 H]-AA was quantified from supernatants of stimulated platelet samples in a manner identical to the determination of serotonin secretion.
The reactions were terminated at 4 minutes and [^3 H]-AA was sampled from platelet supernatants and analyzed as described herein. Data are averages ± S.E.M. from 3-5 donors.

[8] = tested on: human platelets (AA-induced MDA formation); experiment: AA-induced malondialdehyde (MDA) formation; type: cell-based; settings: Platelet, mean+S.E., N=3-5
Experimental: as §3, with “The platelet count was adjusted to 3×10^8 /ml for aggregation, secretion and biochemical studies.” left out
Platelet aggregation studies were performed according to the turbidometric method of Born, as described in Nature, 194: 927-929 (1962), in a Payton Model 600 dual channel aggregometer interfaced to an Apple microcomputer for acquistion, quantitation, presentation, and management of platelet aggregation data, as described in Huzoor-Akbar, et al., 32 Thromb. […] Secretion of the contests of platelet dense granules was measured by monitoring the release of radioactivity from platelets prelabeled with [^14 C]-serotonin. Malondialdehyde formation induced by AA was determined as described in Huzoor-Akar et al., Biochem Pharmacol., 30: 2013-2020 (1981). […]

[9] = tested on: human platelets (collagen-induced aggregation); settings: literature; cited from earlier work
[10] = tested on: human platelets (collagen-induced serotonin secretion); settings: Witiak et al., J. Med Chem. 25: 90 (1982); cited from earlier work
[11] = tested on: hyper-aggregatory responses to inducers of the prostaglandin-dependent pathway; settings: hyperlipidemic patients; Vargaftig et al. (1981); cited from earlier work

Row | SMILES | inhibition of (secondary wave of) ADP-induced aggregation (in words) [1] | rank order of potency, aggregation and serotonin secretory responses to ADP and AA [1] | IC50 [1] [µM] | fold more potent than clofibric acid as inhibitor of ADP-induced platelet activation [1] | inhibition of AA-induced aggregation (in words) [2] | rank order of inhibitory potency, AA-induced aggregation [2] | IC50 [2] [µM] | fold more potent inhibitor of AA-induced aggregation [2] | antiaggregatory potency relative to clofibric acid (in words) [2] | inhibition of U46619-induced aggregation/responses (in words) [3] | IC50 [3] [µM] | IC50 [4] [µM] | rank order of inhibitory potency, AA-induced serotonin secretion [5] | IC50 [5] [µM] | rank order of inhibitory potency against U46619-induced serotonin secretion [6] | IC50 [6] [µM] | fold more potent than clofibric acid as inhibitor of U46619-evoked serotonin secretion [6] | rank order of inhibitory potency, thrombin-induced AA release [7] | IC50 [7] [µM] | inhibition of AA release (in words) [7] | also measured
1 | O=c1oc2ccc(Cl)cc2c(O)c1O [compound IX, 6-chloro-3,4-dihydroxy-2H-1-benzopyran-2-one] | potent inhibitor of thrombin-induced AA release and ADP- or AA-induced aggregation; also recorded: concentration-dependent inhibition | benzopyranone analogue>2,3-dihydrobenzofuran analog>clofibric acid | 363 ± 159 | about 2 fold | potent inhibitor of thrombin-induced AA release and ADP- or AA-induced aggregation; also recorded: concentration-dependent inhibition | IX>X>1 | 739 ± 86 | approximately 4 fold | more potent antiaggregatory agents than clofibric acid | inhibits U46619-induced responses in human platelets; also recorded: concentration-dependent inhibitors of U46619-induced aggregation | 1500 ± 160 | 466 ± 90 | IX>X>1 | 814 ± 90 | dihydrobenzofuran>benzopyranone>clofibric acid | 2380 ± 394 | about 2 fold | IX>>X=1; also recorded: IX>1=X | 432 | blocks AA release from platelet membrane phospholipids; also recorded: potent inhibitor of thrombin-induced AA release | inhibition of AA metabolism (in words) ([2]; inferred from AA-mediated versus U46619 responses): acts as an inhibitor of AA metabolism
2 | O=C(O)C1Cc2cc(Cl)ccc2O1 (stereo not drawn) [compound X, 5-chloro-2,3-dihydrobenzofuran-2-carboxylic acid] | concentration-dependent inhibition | benzopyranone analogue>2,3-dihydrobenzofuran analog>clofibric acid | 533 ± 71 | about 2 fold | concentration-dependent inhibition | IX>X>1 | 851 ± 85 | approximately 4 fold | more potent antiaggregatory agents than clofibric acid | antagonizes the proaggregatory actions of the thromboxane A2 agonist U46619; also recorded: concentration-dependent inhibitors of U46619-induced aggregation | 1480 ± 277 | 419 ± 90 | IX>X>1 | 1010 ± 142 | dihydrobenzofuran>benzopyranone>clofibric acid | 1440 ± 239 | about 2 fold | IX>>X=1; also recorded: IX>1=X | 3870 | blocks the release and subsequent metabolism of AA | IC50 [8]: 908 ± 137 µM
3 | O=C1OC(c2ccc(Cl)cc2)C(O)=C1O (stereo not drawn) [compound 2, 2-hydroxytetronic acid aci-reductone] |  |  |  |  |  |  |  |  |  |  |  |  |  |  |  |  |  |  |  |  | inhibition of collagen-induced human platelet aggregation/activation (in words) [9]: inhibit collagen-inducedhuman platelet aggregation; inhibition of collagen-induced secretion of [14C]-serotonin (in words) [10]: in a concentration-dependent manner at equivalent doses
4 | CCOC(=O)C(C)(C)Oc1ccc(Cl)cc1 [clofibrate] |  |  |  |  |  |  |  |  |  |  |  |  |  |  |  |  |  |  |  |  | effect of therapy on hyper-aggregatory responses (in words) [11]: reverses the hyper-aggregatory responses to inducers of the prostaglandin-dependent pathway
